According to ChEMBL document CHEMBL1135473, “Synthesis of (+)-cis-N-(4-isothiocyanatobenzyl)-N-normetazocine, an isothiocyanate derivative of N-benzylnormetazocine as acylant agent for the sigma(1) receptor” (J Med Chem, 2002):

How the values were obtained:
[1] = biological target: Sigma non-opioid intracellular receptor 1 (Homo sapiens) (UniProt Q99720); settings: Cavia porcellus; 200 nM
[2] = biological target: Sigma non-opioid intracellular receptor 1 (Homo sapiens) (UniProt Q99720); settings: Cavia porcellus; 0.1 uM
[3] = biological target: Sigma non-opioid intracellular receptor 1 (Homo sapiens) (UniProt Q99720); settings: Cavia porcellus; 0.1 uM; remark: listed apart in the source
Description: Maximum binding capacity against Sigma opioid receptor type 1 at 0.1 uM BNIT

[4] = biological target: Sigma non-opioid intracellular receptor 1 (Homo sapiens) (UniProt Q99720); settings: Cavia porcellus; 0.1 uM; remark: listed apart in the source
[5] = biological target: Sigma non-opioid intracellular receptor 1 (Homo sapiens) (UniProt Q99720); settings: Cavia porcellus; 5 uM
[6] = biological target: Sigma non-opioid intracellular receptor 1 (Homo sapiens) (UniProt Q99720); settings: Cavia porcellus; 0.1 uM; remark: listed apart in the source
Description: Maximum binding capacity against Sigma opioid receptor type 2 at 0.1 uM BNIT

[7] = biological target: Sigma non-opioid intracellular receptor 1 (Homo sapiens) (UniProt Q99720); settings: Cavia porcellus; 1 uM

Chain of Sigma non-opioid intracellular receptor 1 (Homo sapiens) (Q99720 whole entry): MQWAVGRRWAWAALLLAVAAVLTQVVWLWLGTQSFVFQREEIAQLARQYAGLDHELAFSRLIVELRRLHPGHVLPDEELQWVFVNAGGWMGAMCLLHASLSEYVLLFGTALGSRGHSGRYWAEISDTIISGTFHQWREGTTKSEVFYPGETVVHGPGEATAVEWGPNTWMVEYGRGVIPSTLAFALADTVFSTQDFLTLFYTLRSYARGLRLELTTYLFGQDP

Compound	Bmax [1] [fmol/mg]	Kd2 [2] [nM]	Bmax1 [3]	Kd1 [4] [nM]	Bmax [5] [fmol/mg]	Bmax2 [6]	Bmax [7] [fmol/mg]
CC(C)=CCN1CC[C@]2(C)c3cc(O)ccc3C[C@H]1[C@H]2C	1120	–	–	–	–	–	–
Cc1ccccc1NC(=N)Nc1ccccc1C	–	21.4	674	12.8	957	1330	1010
